Read-outs that look alike come from different tables or passages of the source.
Biological target: JAK3 enzyme (Homo sapiens (Human), UniProt P52333)
Assay: JAK Caliper Enzyme Assay at 4 μM or 1 mM ATP
Type: biochemical
[1] = read-out: JAK3 (4 μM ATP) IC50, 4 μM ATP
[2] = read-out: JAK3 (1 mM ATP) IC50, 1 mM ATP

Chain of JAK3 enzyme (P52333 whole entry, species assumed): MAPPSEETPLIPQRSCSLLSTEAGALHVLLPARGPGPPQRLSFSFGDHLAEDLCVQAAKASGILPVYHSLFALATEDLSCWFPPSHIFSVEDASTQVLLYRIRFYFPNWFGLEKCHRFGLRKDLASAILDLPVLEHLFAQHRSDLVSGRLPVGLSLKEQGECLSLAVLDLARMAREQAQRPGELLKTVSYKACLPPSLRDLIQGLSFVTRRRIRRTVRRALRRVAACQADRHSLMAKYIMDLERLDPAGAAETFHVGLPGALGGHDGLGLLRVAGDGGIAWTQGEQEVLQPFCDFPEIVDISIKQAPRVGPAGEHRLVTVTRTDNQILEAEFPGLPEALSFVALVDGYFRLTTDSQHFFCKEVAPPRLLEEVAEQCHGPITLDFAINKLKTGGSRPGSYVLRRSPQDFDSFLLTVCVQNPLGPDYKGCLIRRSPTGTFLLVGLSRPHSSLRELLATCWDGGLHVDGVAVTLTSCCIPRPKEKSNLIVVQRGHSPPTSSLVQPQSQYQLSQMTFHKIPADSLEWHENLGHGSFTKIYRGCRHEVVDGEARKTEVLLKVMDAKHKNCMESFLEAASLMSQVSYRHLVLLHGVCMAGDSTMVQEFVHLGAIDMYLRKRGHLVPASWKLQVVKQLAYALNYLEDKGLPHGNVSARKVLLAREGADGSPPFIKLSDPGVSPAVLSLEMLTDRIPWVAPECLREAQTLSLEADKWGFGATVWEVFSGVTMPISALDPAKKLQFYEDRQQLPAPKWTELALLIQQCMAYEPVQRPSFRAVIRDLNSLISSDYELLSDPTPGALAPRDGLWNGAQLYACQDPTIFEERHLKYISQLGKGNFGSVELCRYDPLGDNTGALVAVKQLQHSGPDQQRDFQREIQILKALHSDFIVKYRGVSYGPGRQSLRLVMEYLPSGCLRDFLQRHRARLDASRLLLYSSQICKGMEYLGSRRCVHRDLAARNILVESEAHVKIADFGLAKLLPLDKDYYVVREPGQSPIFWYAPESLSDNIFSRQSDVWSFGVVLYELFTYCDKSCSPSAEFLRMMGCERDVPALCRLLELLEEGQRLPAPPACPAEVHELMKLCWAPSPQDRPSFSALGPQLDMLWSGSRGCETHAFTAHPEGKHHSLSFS

Row | Structure (SMILES) | IC50 [1] | IC50 [2]
1 | C=CC(=O)N1C[C@H](Nc2ccnc3[nH]cc(C#N)c23)CC[C@@H]1C [Example 165, 4-{[(3R,6S)-1-Acryloyl-6-methylpiperidin-3-yl]amino}-1H-pyrrolo[2,3-b]pyridine-3-carbonitrile] | 0.5 nM | 22.7 nM
2 | C=C(F)C(=O)N1CCC[C@@H](Nc2ncnc3[nH]ccc23)C1 [Example 91, 2-fluoro-1-[(3R)-3-(7H-pyrrolo[2,3-d]pyrimidin-4-ylamino)piperidin-1-yl]prop-2-en-1-one] | 56.5 nM | 4650 nM
3 | C/C=C/C(=O)N1CCC[C@@H](Nc2ncnc3[nH]cc(CC(C)(C)O)c23)C1 [Example 159, (2E)-1-[(3R)-3-{[5-(2-Hydroxy-2-methylpropyl)-7H-pyrrolo[2,3-d]pyrimidin-4-yl]amino}piperidin-1-yl]but-2-en-1-one] | > 10000 nM | 
4 | C=CC(=O)N1CC[C@H]2CCN(c3ncnc4[nH]cc(C(C)=O)c34)[C@H]2C1 [Example 111, 1-[(3aR,7aR)-1-(5-Acetyl-7H-pyrrolo[2,3-d]pyrimidin-4-yl)octahydro-6H-pyrrolo[2,3-c]pyridin-6-yl]prop-2-en-1-one] | 39.2 nM | 4740 nM
5 | C=CC(=O)N1C[C@H](Nc2ncnc3[nH]cc(CCOC)c23)CC[C@@H]1C [Example 13, 1-((2S,5R)-5-((5-(2-Methoxyethyl)-7H-pyrrolo[2,3-d]pyrimidin-4-yl)amino)-2-methylpiperidin-1-yl)prop-2-en-1-one] | 0.4 nM | 60.6 nM
6 | C=CC(=O)N1C[C@@H](O)C[C@@H](Nc2ncnc3[nH]ccc23)C1 [Example 17, 1-((3R,5S)-3-(7H-Pyrrolo[2,3-d]pyrimidin-4-ylamino)-5-hydroxypiperidin-1-yl)prop-2-en-1-one] | 1.7 nM | 92.2 nM
7 | C=CC(=O)N1CCC(Oc2cnc3[nH]cc(-c4cnc(OC)nc4)c3n2)CC1 [Example 219, 1-(4-{[7-(2-methoxypyrimidin-5-yl)-5H-pyrrolo[2,3-b]pyrazin-2-yl]oxy}piperidin-1-yl)prop-2-en-1-one] | 1.7 nM | 153 nM
8 | C/C=C\C(=O)N1CCC[C@@H](Nc2ncnc3[nH]ccc23)C1 [Example 102, (2Z)-1-[(3R)-3-(7H-pyrrolo[2,3-d]pyrimidin-4-ylamino)piperidin-1-yl]but-2-en-1-one] | 353 nM | > 10000 nM
9 | C=CC(=O)N1CCC[C@@H](Nc2ncnc3[nH]cc(CC(C)(C)O)c23)C1 [Example 53, (R)-1-(3-((5-(2-Hydroxy-2-methylpropyl)-7H-pyrrolo[2,3-d]pyrimidin-4-yl)amino)piperidin-1-yl)prop-2-en-1-one] | 4 nM | 192 nM
10 | C=CC(=O)N1CC[C@@H](F)[C@@H](Nc2ncnc3[nH]ccc23)C1 [Example 54, 1-((3S,4R)-3-((7H-Pyrrolo[2,3-d]pyrimidin-4-yl)amino)-4-fluoropiperidin-1-yl)prop-2-en-1-one] | 1.7 nM | 192 nM
11 | C=CC(=O)N1CCC(Nc2cnc3[nH]cc(-c4cncnc4)c3n2)CC1 [Example 202, 1-(4-{[7-(pyrimidin-5-yl)-5H-pyrrolo[2,3-b]pyrazin-2-yl]amino}piperidin-1-yl)prop-2-en-1-one] | 0.9 nM | 99.1 nM
12 | C=CC(=O)N1C[C@H](Nc2ncnc3[nH]ccc23)C[C@H](OC)C1 [Example 19, 1-((3R,5S)-3-((7H-Pyrrolo[2,3-d]pyrimidin-4-yl)amino)-5-methoxypiperidin-1-yl)prop-2-en-1-one] | 0.6 nM | 67.6 nM
13 | COC(=O)C/C=C/C(=O)N1CCC[C@@H](Nc2ncnc3[nH]ccc23)C1 [Example 97, methyl (3E)-5-oxo-5-[(3R)-3-(7H-pyrrolo[2,3-d]pyrimidin-4-ylamino)piperidin-1-yl]pent-3-enoate] | 904 nM | > 10000 nM
14 | C/C=C/C(=O)N1CCC[C@@H](N2CC(C)c3c[nH]c4ncnc2c34)C1 (mixture of isomers) [Example 154, (2E)-1-[(3R)-3-(3-methyl-3,4-dihydro-1,5,6,8-tetraazaacenaphthylen-5 (1H)-yl)piper-idin-1-yl]but-2-en-1-one] | 4940 nM | 
15 | C=C(C)C(=O)N1CCC[C@@H](N2CC(C)c3c[nH]c4ncnc2c34)C1 (mixture of isomers) [Example 153, 2-Methyl-1-[(3R)-3-(3-methyl-3,4-dihydro-1,5,6,8-tetraazaacenaphthylen-5 (1H)-yl)piperidin-1-yl]prop-2-en-1-one] | 9440 nM | 
16 | C=CC(=O)N1Cc2ncn(C)c2C(Nc2ncnc3[nH]ccc23)C1 (centres unmarked) [Example 166, 1-[1-Methyl-7-(7H-pyrrolo[2,3-d]pyrimidin-4-ylamino)-1,4,6,7-tetrahydro-5H-imidazo[4,5-c]pyridin-5-yl]prop-2-en-1-one] | 370 nM | > 10000 nM
17 | C=CC(=O)N1CC[C@@H]2CN(c3ncnc4[nH]ccc34)[C@@H]2C1 [Example 131, 1-[(1S,6R)-8-(7H-Pyrrolo[2,3-d]pyrimidin-4-yl)-3,8-diazabicyclo[4.2.0]oct-3-yl]prop-2-en-1-one] | 988 nM | 
18 | C=CC(=O)N1CCC[C@@H](Nc2ncnc3[nH]cc(-c4cccnc4)c23)C1 [Example 26, 1-[(3R)-3-{[5-(pyridin-3-yl)-7H-pyrrolo[2,3-d]pyrimidin-4-yl]amino}piperidin-1-yl]prop-2-en-1-one] | 1.6 nM | 153 nM

Results, then the molecule that gave them:

Row | IC50 [1] | IC50 [2] | Structure (SMILES)
19 | 0.4 nM | 10.7 nM | C=CC(=O)N1CC[C@@H](Nc2cnc3[nH]cc(C(=O)NC(C)C)c3n2)[C@@H](F)C1 [Example 320, 2-{[(3S,4R)-1-acryloyl-3-fluoropiperidin-4-yl]amino}-N-(propan-2-yl)-5H-pyrrolo[2,3-b]pyrazine-7-carboxamide]
20 | 0.2 nM | 7.8 nM | C=CC(=O)N1CCC(Nc2cnc3[nH]cc(C(=O)N[C@@H]4CCC[C@H]4F)c3n2)CC1 [Example 237, 2-[(1-acryloylpiperidin-4-yl)amino]-N-[(1R,2R)-2-fluorocyclopentyl]-5H-pyrrolo[2,3-b]pyrazine-7-carboxamide]
21 | 0.2 nM | 9.3 nM | C=CC(=O)N1CCC(Nc2cnc3[nH]cc(C(=O)NCC4CC(F)(F)C4)c3n2)CC1 [Example 238, 2-[(1-acryloylpiperidin-4-yl)amino]-N-[(3,3-difluorocyclobutyl)methyl]-5H-pyrrolo[2,3-b]pyrazine-7-carboxamide]
22 | 15.9 nM | 814 nM | C=CC(=O)N1CCC(Nc2cnc3[nH]cc(C(=O)N(C)C4CC4)c3n2)CC1 [Example 286, 2-[(1-acryloylpiperidin-4-yl)amino]-N-cyclopropyl-N-methyl-5H-pyrrolo[2,3-b]pyrazine-7-carboxamide]
23 | 0.3 nM | 8.5 nM | C=CC(=O)N1CCC(Nc2cnc3[nH]cc(C(=O)N[C@@H](C)CC)c3n2)CC1 [Example 285, 2-[(1-acryloylpiperidin-4-yl)amino]-N-[(2S)-butan-2-yl]-5H-pyrrolo[2,3-b]pyrazine-7-carboxamide]
24 | 3.9 nM | 326 nM | C=CC(=O)N1[C@H](C)CN(c2cnc3[nH]cc(C(=O)NC(C)C)c3n2)C[C@@H]1C [Example 306, 2-[(3R,5S)-4-acryloyl-3,5-dimethylpiperazin-1-yl]-N-(propan-2-yl)-5H-pyrrolo[2,3-b]pyrazine-7-carboxamide]
25 | 0.3 nM | 7.9 nM | C=CC(=O)N1CCC(Nc2cnc3[nH]cc(C(=O)N[C@H](C)COC)c3n2)CC1 [Example 268, 2-[(1-acryloylpiperidin-4-yl)amino]-N-[(2R)-1-methoxypropan-2-yl]-5H-pyrrolo[2,3-b]pyrazine-7-carboxamide]
26 | 0.2 nM | 7.3 nM | C=CC(=O)N1CCC(Nc2cnc3[nH]cc(C(=O)NCCCC)c3n2)CC1 [Example 269, 2-[(1-acryloylpiperidin-4-yl)amino]-N-butyl-5H-pyrrolo[2,3-b]pyrazine-7-carboxamide]
27 | 0.1 nM | 9.1 nM | C=CC(=O)N1CCC(Nc2cnc3[nH]cc(C(=O)NCCCC(F)(F)F)c3n2)CC1 [Example 240, 2-[(1-acryloylpiperidin-4-yl)amino]-N-(4,4,4-trifluorobutyl)-5H-pyrrolo[2,3-b]pyrazine-7-carboxamide]
28 | 0.5 nM | 44.6 nM | C=CC(=O)N1CC[C@H](Nc2cnc3[nH]cc(C(=O)NC(C)C)c3n2)[C@H](OC)C1 [Example 317, 2-{[(3R,4S)-1-acryloyl-3-methoxypiperidin-4-yl]amino}-N-(propan-2-yl)-5H-pyrrolo[2,3-b]pyrazine-7-carboxamide]
29 | 0.3 nM | 9.7 nM | C=CC(=O)N1CCC(Nc2cnc3[nH]cc(C(=O)N[C@@H]4CC[C@H](F)C4)c3n2)CC1 [Example 255, 2-[(1-acryloylpiperidin-4-yl)amino]-N-[(1R,3S)-3-fluorocyclopentyl]-5H-pyrrolo[2,3-b]pyrazine-7-carboxamide]
30 | 1.4 nM | 183 nM | C=CC(=O)N1CCN(c2cnc3[nH]cc(C(=O)NC(C)C)c3n2)C2(CC2)C1 [Example 313, 2-(7-acryloyl-4,7-diazaspiro[2.5]oct-4-yl)-N-(propan-2-yl)-5H-pyrrolo[2,3-b]pyrazine-7-carboxamide]
31 | 0.2 nM | 8.2 nM | C=CC(=O)N1CCC(Nc2cnc3[nH]cc(C(=O)N[C@H](C)CCC)c3n2)CC1 [Example 274, 2-[(1-acryloylpiperidin-4-yl)amino]-N-[(2R)-pentan-2-yl]-5H-pyrrolo[2,3-b]pyrazine-7-carboxamide]
32 | 0.2 nM | 7.9 nM | C=CC(=O)N1CCC(Nc2cnc3[nH]cc(C(=O)NC4CCCCC4(F)F)c3n2)CC1 (centres unmarked) [Example 256, 2-[(1-acryloylpiperidin-4-yl)amino]-N-(2,2-difluorocyclohexyl)-5H-pyrrolo[2,3-b]pyrazine-7-carboxamide]
33 | 9.7 nM | 592 nM | C=CC(=O)N1CCC(Nc2cnc3[nH]cc(C(=O)N(C)C(C)C)c3n2)CC1 [Example 279, 2-[(1-acryloylpiperidin-4-yl)amino]-N-methyl-N-(propan-2-yl)-5H-pyrrolo[2,3-b]pyrazine-7-carboxamide]

— patent publication US20250134869A1, “Pyrrolo[2,3-d]pyrimidinyl, Pyrrolo[2,3-b]pyrazinyl and Pyrrolo[2,3-d]pyridinyl Acryla-mides” (Pfizer Inc, priority 2021, published 2025)
